Data on 3 molecules can be found in patent US11767330B2, “Citrate salt, pharmaceutical compositions, and methods of making and using the same” (Foghorn Therapeutics Inc., priority 2021, dated 2023).

The target in series [1] is T1, BRD9 (Homo sapiens, UniProt Q9H8M2).
T1 sequence (Q9H8M2 1-597): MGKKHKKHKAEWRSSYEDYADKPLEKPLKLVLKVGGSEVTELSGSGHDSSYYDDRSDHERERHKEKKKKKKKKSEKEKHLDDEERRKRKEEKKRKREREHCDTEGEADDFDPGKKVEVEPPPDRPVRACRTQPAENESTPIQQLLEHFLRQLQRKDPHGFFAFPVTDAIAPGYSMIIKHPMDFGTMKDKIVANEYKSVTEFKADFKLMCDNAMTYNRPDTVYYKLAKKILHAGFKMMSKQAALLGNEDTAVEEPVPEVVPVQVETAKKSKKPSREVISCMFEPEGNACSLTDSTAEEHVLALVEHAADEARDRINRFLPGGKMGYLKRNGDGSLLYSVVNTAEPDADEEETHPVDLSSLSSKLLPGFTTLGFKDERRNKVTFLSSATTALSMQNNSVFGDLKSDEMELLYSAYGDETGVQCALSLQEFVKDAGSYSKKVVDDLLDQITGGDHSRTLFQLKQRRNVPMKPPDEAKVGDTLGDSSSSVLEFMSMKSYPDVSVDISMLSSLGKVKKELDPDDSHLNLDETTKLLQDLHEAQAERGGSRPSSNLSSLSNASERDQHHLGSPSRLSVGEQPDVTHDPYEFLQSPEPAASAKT
The series is described as follows: BRD9 degradation western blot in SYO-1 cells (Example 13). On the set-up: degradation endogenous BRD9 protein in two synovial sarcoma cell lines; endogenous in cells; host or cells: SYO1 (SYO-1) synovial sarcoma cells. It is filed as cell-based. Conditions: for DC50: read-out: Fitted DC50; for degradation of endogenous BRD9 protein at early time point: two synovial sarcoma cell lines (SYO-1 and ASKA). The protocol: (§1) Synovial sarcoma cells were plated in 6-well plate at 500-100k cells/well and treated with serial concentrations of BRD9 degrader (10 nM top concentration, diluted 1:3) the next day for two time points at 37° C. Cells were then harvested, washed with cold PBS, and frozen in cell pellets at −80° C. Lysates were prepared by resuspending thawed pellets in 1×RIPA Lysis and Extraction buffer (Thermo Fisher, Cat #89900) with 1× Halt™ Protease and Phosphatase Inhibitor Cocktail, EDTA-free (Thermo Fisher, Cat #78441) and 1:1000 dilution Pierce™ Universal Nuclease for Cell Lysis 25 ku (Thermo Fisher, Cat #88700). Lysates were incubated on ice for 10 minutes and then centrifuged in 4° C. at maximum speed (15,000 rpm) for 10 minutes. Samples were then analyzed for total protein using BCA protein quantification assay and diluted to 1 μg/μL with lysis buffer and 1× NuPAGE™ LDS Sample Buffer (4×) (Thermo Fisher, Cat #NP0007) and 1×DTT from 30× stock (Cell Signaling Technologies, Cat #14265S). Samples with 20-25 ug of total protein were loaded into 4-12% Bis-Tris Mini-Gel with 1×MES Running buffer and run at 150V for 45 minutes. Gels were transferred using Trans-Blot® Turbo™ Transfer System (semi-dry) at 25V for 10 minutes (High MW setting) on nitrocellulose blots. Blots were blocked in 5% milk in TBST for 1 hour and probed with BRD9 antibody (Bethyl Labs, Cat #A303-781A, 1:750 for SYO1, and Cell Signaling Technologies, Cat #71232S for ASKA) and beta-Actin antibody (Cell Signaling Technologies, Cat #3700, 1:2,000) overnight at 4° C. The next day, blots were washed in TBST 3× and probed with 1:5,000 IRDye® 680LT Goat anti-Rabbit IgG Secondary Antibody (LiCOR, Cat #926-68021) and 1:10,000 IRDye® 800CW Goat anti-Mouse IgG Secondary Antibody (LiCOR, Cat #926-32210) in LiCOR Odyssey® Blocking Buffer (TBS) for 1 hour at room temperature. Blots were washed in TBST 3× and scanned at […] wavelength using LiCOR Odyssey® CLx Imaging System. Western blot signal was quantified using same analyses program included in the same machine. BRD9 signal was quantified by normalizing to beta-actin signal and all samples were normalized to DMSO, set as 100% signal.
(In general: Immunoblotting shows a protein as a band on a membrane.)

The target in series [2] is T1, BRD9. As to the kind of experiment: Pharmacodynamic BRD9 level in SYO-1 xenograft, western blot (Example 14). It is filed as in vivo, mice. On the set-up: Tumors were lysed with 1×RIPA lysis buffer; from tissue; host or cells: SYO-1 xenograft tumours in BALB/c Nude mice. Conditions: SYO-1 Xenograft model; for pharmacodynamic activity, BRD9 protein level by western blot: BALB/c Nude mice, single dose i.v. (Table 6).

Series [3] in a line: Interconversion between Enantiomer 1 and Enantiomer 2 in cell medium (chiral LC/MS-MS). It is filed as physicochemical. The note with it: 0.2 μM dosed enantiomer, cell medium 37° C. The protocol: For the assessment of interconversion between Enantiomer 1 and Enantiomer 2 in cell medium, the following test was performed. […] At designated time point, aliquot (50 μL) was taken and processed by the addition of 150 μL of acetonitrile containing 0.1% formic acid and internal standard for LC/MS-MS analysis. Peak areas of both Enantiomer 1 and Enantiomer 2 were determined for each sample using a chiral specific analytical method.

In series [4] the target is T1, BRD9. As to the kind of experiment: BRD9 degradation western blot in ASKA cells (Example 13). Also noted: degradation endogenous BRD9 protein in two synovial sarcoma cell lines; endogenous in cells; host or cells: ASKA synovial sarcoma cells. In kind it is cell-based. The note with it: for DC50: read-out: Fitted DC50. The protocol:
as §1, with “Synovial sarcoma cells were plated in 6-well plate at 500-100k cells/well and treated with serial concentrations of BRD9 degrader (10 nM top concentration, diluted 1:3) the next day for two time points at 37° C.” left out

Series [5] deals with synovial sarcoma cell lines (SYO1, HS-SY-II, and ASKA). The series is described as follows: Growth of synovial sarcoma cell lines, crystal violet day 14 (Example 3). It is filed as cell-based. The note with it: daily treatment. As for the experimental part:
(§2) Procedure: Cells were seeded into 6-well or 12-well plates and were treated daily with a BRD9 degrader (Compound 1), a bromo-domain BRD9 binder (Compound 2), E3 ligase binder (lenalidomide), DMSO, or staurosporin (positive control for cell killing), at indicated concentrations. The number of cells was optimized for each cell line. Growth media was refreshed every 5 days. By day 14, medium was removed, cells were washed with PBS, and stained using 500 μL of 0.005% (w/v) crystal violet solution in 25% (v/v) methanol for at least 1 hour at room temperature. Subsequently plates were scanned on an Odyssey CLx Imaging system.

Series [6] deals with non-synovial control cancer cell lines (RD, HCT116, and Calu6). The series is described as follows: Growth of non-synovial control cancer cell lines, crystal violet day 14 (Example 3). The note with it: daily treatment. In kind it is cell-based. The protocol: as §2
For series [7], the system named is non-synovial control cancer cell lines (293T, A549, G401). As to the kind of experiment: Growth of non-synovial control cancer cell lines (Example 2). In kind it is cell-based. As for the experimental part: (§3) Cells were treated with DMSO or the BRD9 degrader, Compound 1, at indicated concentrations, and proliferation was monitored from day 7 to day 14 by measuring confluency overtime using an IncuCyte live cell analysis system (FIG. 4). Growth medium and compounds were refreshed every 3-4 days.
(§4) Cells were seeded into 12-well plates and treated with DMSO, 1 μM BRD9 inhibitor, Compound 2 (also known as BI-7273, see Martin et al, J Med Chem. 59(10):4462-4475 (2016); see structure of compound 2 below), or 1 μM BRD9 degrader, Compound 1.
(§5) The number of cells was optimized for each cell line. Growth medium and compounds were refreshed every 3-5 days. SYO1, Yamato, A549, 293T and HS-SY-II cells were fixed and stained at day 11. ASKA cells were fixed and stained at day 23. Staining was done by incubation with crystal violet solution (0.5 g Crystal Violet, 27 ml 37% Formaldehyde, 100 mL 10×PBS, 10 mL Methanol, 863 dH20 to 1 L) for 30 min followed by 3× washes with water and drying the plates for at least 24 h at room temperature. Subsequently plates were scanned on an Odyssey CLx Imaging system (FIG. 5).
(§6) Cells were seeded into 96-well ultra-low cluster plate (Costar, #7007) in 200 μL complete media and treated at day 2 with DMSO, Staurosporin, or BRD9 degrader, Compound 1, at indicated doses (FIG. 2C). Media and compounds were changed every 5 d and cell colonies were imaged at day 14.

Series [8] deals with synovial sarcoma cell lines (SYO1, Yamato, HS-SY-II, and ASKA). As to the kind of experiment: Growth of synovial sarcoma cell lines, IncuCyte confluency / crystal violet / colony imaging (Example 2). It is filed as cell-based. The note with it: FIGS. 4, 5, 6. As for the experimental part: as §3, §4, §5, §6

“Also recorded” adds a separate entry of the source.

Broadly, the DC50 is the midpoint of the concentration-degradation curve. `COc1cc(-c2cn(C)c(=O)c3cnc(N4CCC4)cc23)cc(OC)c1CN1CCC(CN2CCC3(CC2)CN(c2ccc4c(c2)C(=O)N([C@H]2CCC(=O)NC2=O)C4)C3)CC1` (single isomer, unassigned; enantiomer 1) [Enantiomer 1]: the DC50 at BRD9 [1] (SYO-1, 1 h) was 2.8 nM; at BRD9 [1] (SYO-1, 6 h) it was 0.066 nM; at BRD9 [4] (0.5 h), over 10 nM; on BRD9 [4] (2 h), 0.38 nM. Besides, the “degradation of endogenous BRD9 protein at early time point” value at BRD9 [1] was “largely inactive or with much reduced degradation potency”. In addition, the “pharmacodynamic activity, BRD9 protein level by western blot” value at BRD9 [2] was “inactive and did not degrade BRD9 protein”. Moreover, the “% Enantiomer 2” value in series [3] (2 h) stood at 12%; in series [3] (6 h) it was 30%. In addition, the BRD9 degradation activity entry on BRD9 [4] (30 minutes, up to 10 μM) was “no discernable activity”.
As for `COc1cc(-c2cn(C)c(=O)c3cnc(N4CCC4)cc23)cc(OC)c1CN1CCC(CN2CCC3(CC2)CN(c2ccc4c(c2)C(=O)N([C@@H]2CCC(=O)NC2=O)C4)C3)CC1` (single isomer, unassigned; enantiomer 2) [Enantiomer 2], the “difference in DC50 between Enantiomer 1 and Enantiomer 2” value at BRD9 [1] (SYO1, 6 h) was “ca. 3 fold”; at BRD9 [4] (2 h), “about 32 fold”. Besides, the “BRD9 degradation compared to racemic compound D1” value at BRD9 [1] (SYO-1, 1 or 6 hours (FIGS. 16 and 17)) was “slightly better than its racemic parent compound D1 in degrading BRD9 but overall comparable”. Besides, the 50% degradation concentration (DC50) on BRD9 [1] (SYO-1, 1 h) worked out at 0.092 nM; on BRD9 [1] (SYO-1, 6 h) it was 0.023 nM; on BRD9 [4] (0.5 h), 0.34 nM; on BRD9 [4] (2 h), 0.012 nM. Moreover, the “active enantiomer in degrading BRD9 in cells” value at BRD9 [1] (overall conclusion of Example 13) is given as “active enantiomer”. Moreover, on BRD9 [1], the “degradation of endogenous BRD9 protein at early time point” value was “much more potent”. Besides, the “pharmacodynamic activity, BRD9 protein level by western blot” value on BRD9 [2] is listed as “significant activity; also recorded: equipotent to racemic compound D1”. In addition, the “duration of BRD9 degradation after a single dose” value at BRD9 [2] (single dose i.v.) was “degraded BRD9 up to 72 hours after a single dose”. Further, the “% Enantiomer 2” value amounted to 99% in series [3] (0 h), 95% in series [3] (0.5 h), 82% in series [3] (2 h) and 63% in series [3] (6 h).
For the molecule `COc1cc(-c2cn(C)c(=O)c3cnccc23)cc(OC)c1CN(C)C` [Compound 2], the “growth of synovial sarcoma cell lines” value in series [5] and in series [8] was “inhibition of the growth of the cells” each time. Moreover, the “growth of non-synovial control cancer cell lines” value in series [6] is listed as “did not result in inhibition of the growth”; in series [7], “does not result in inhibition of the growth”.
